Tested on: cardiac organoid
Assay: Drug reaction experiment: PIV-based contractility analysis of cardiac organoid treated with isoprenaline
Type: cell-based, human
Source text: Specifically, isoprenaline, which is a widely used […] (inotropic agent), is used to assess contractility of a cardiac organoid in response to drugs. […] As a result, the contraction-relaxation velocity profile and beating image of the cardiac organoids before drug treatment may be confirmed as shown in FIG. 10A and FIG. 10B, after drug treatment as shown in FIG. 10C and FIG. 10D, and 1 day after drug withdrawal as shown in FIG. 10E and FIG. 10F.

[1] = cardiac organoid, after treating for 15 minutes with isoprenaline, vs before drug treatment

## CC(C)NCC(O)c1ccc(O)c(O)c1 (stereo not shown) [isoprenaline]
1 day after drug withdrawal
  heart beating of the organoid: returned to before the drug treatment
[1]
  average contraction duration: reduced
  contraction time to peak: reduced
Cardiac organoid, after treating for 15 minutes with isoprenaline, vs before drug treatment (24.3±3.22 BPM)
  heart beating rate: increased significantly

Reference: US20250265708A1, “METHOD AND SYSTEM FOR CONTRACTILITY ASSESSMENT OF CARDIAC ORGANOIDS BASED ON PARTICLE IMAGE VELOCIMETRY, PROGRAM FOR THE SAME, AND RECORDING MEDIUM STORING PROGRAM THEREOF” (Research & Business Foundation SUNGKYUNKWAN UNIVERSITY, priority 2024, published 2025)
